Data on 14 compounds can be found in patent US20240124389A1, “COMPOUND OR SALT THEREOF, LIPID PARTICLES, AND PHARMACEUTICAL COMPOSITION” (FUJIFILM Corporation, priority 2021, published 2024).

Data set [1] in a line: Particle size of EPO mRNA-encapsulating lipid particles. The format is physicochemical. The method, then: (§1) The compounds described in Table 1, the neutral lipid, cholesterol (product name: Cholesterol HP; NIPPON FINE CHEMICAL CO., LTD.), and 1,2-dimyristoyl-rac-glycero-3-(methylpolyoxyethylene 2000) (hereinafter, called DMG-PEG2000) (product name: SUNBRIGHT® GM-020; NOF corporation) were dissolved in ethanol at a molar ratio in Table 1 such that the total lipid concentration became 20 mmol/L, thereby obtaining an oil phase.
(§2) As the neutral lipid, 1,2-distearoyl-sn-glycero-3-phosphocholine (product name: COATSOME® MC-8080; NOF corporation) (hereinafter, DSPC), or L-α-dioleoyl phosphatidylethanolamine (Hereinafter, DOPE) (product name: COATSOME® ME-8181; NOF corporation), or 1,2-dioleoyl-sn-glycero-3-phosphocholine (hereinafter, DOPC) (product name: COATSOME® MC-8181; NOF corporation) was used.
(§3) EPO mRNA (product name: CleanCap EPO mRNA (5moU); TriLink) was diluted with 50 mmol/L citrate buffer having a pH 4 such that the weight ratio of total lipid concentration to mRNA concentration is about 16:1 to 64:1, thereby obtaining a water phase. Then, the water phase and the oil phase were mixed together using NanoAssemblr (Precision NanoSystems) such that the volume ratio of water phase:oil phase was 3:1, and the mixed solution was 1.5-fold diluted with phosphate buffered saline (PBS), thereby obtaining a dispersion liquid of mRNA lipid particles. The dispersion liquid was dialyzed with a 10% aqueous sucrose solution using a dialysis cassette (Slide-A-Lyzer G2, MWCO: 10 kD, Thermo Fisher Scientific) to remove ethanol, thereby obtaining EPO mRNA-encapsulating lipid particles.
The particle size of the mRNA-encapsulating lipid particles was measured by 10-fold diluting the dispersion liquid of lipid particle with phosphate buffered saline (PBS) using Zeta-potential & Particle size Analyzer ELS-Z2 (Otsuka Electronics Co., Ltd.).

In data set [2] the test system is EPO mRNA. Briefly: mRNA encapsulation rate of EPO mRNA-encapsulating lipid particles. The format is physicochemical. The method, then:
as §1, §2, §3
15 to 30 μL of a 3 mol/L aqueous sodium acetate solution and 4.5 to 9 μL of glycogen were added to 30 to 60 μL of the lipid particles retaining mRNA, and 0.75 to 1.5 mL of ethanol was added thereto, so that only the nucleic acids were precipitated while the lipid was dissolved. Then, the supernatant was removed by centrifugation. The precipitates were air-dried for 15 minutes or longer, then water was added thereto to redissolve the precipitates, and the concentration thereof was measured using Nanodrop NF1000 (Thermo Fisher Scientific), thereby quantifying the total mRNA concentration.
The mRNA concentration was quantified using a Quant-iT RiboGreen RNA Assay Kit (Thermo Fisher Scientific) according to the protocol. First, a 20×TE buffer included in the above-described kit was diluted with water, thereby obtaining a 1×TE buffer. TE represents Tris/EDTA (ethylenediaminetetraacetic acid). In order to quantify only mRNA in the outer water phase, the dispersion liquid of lipid particles retaining mRNA was 10,000-fold diluted with the 1×TE buffer. 100 μL of the 10,000-fold diluted dispersion liquid of lipid particles was put into a 96-well plate, then 100 μL of a RiboGreen reagent (reagent included in the Quanti-iT Ribogreen RNA Assay Kit described above) 2,000-fold diluted with the 1×TE buffer was added to a sample, and fluorescence (excitation wavelength: 485 nm, fluorescence wavelength: 535 nm) was measured using a plate reader Infinite F200 (TECAN), thereby quantifying the mRNA concentration in the outer water phase.
By using the quantification results of the total mRNA concentration and the mRNA concentration in the outer water phase that were obtained through the above steps, the mRNA encapsulation rate of the mRNA lipid particles was calculated according to the following Equation.
mRNA encapsulation rate (%)=(total mRNA concentration-mRNA concentration in outer water phase)/total mRNA concentration×100

Data set [3] deals with human EPO. Briefly: Measurement of EPO enzyme activity (EPO protein in blood plasma of mice after intravenous administration of EPO mRNA lipid particles). The format is in vivo. The settings on record: C57BL/6J mice, tail-vein i.v., mRNA 0.1 mg/kg, plasma 20 to 24 hours. The method, then: as §1, §2, §3
The dispersion liquid of mRNA lipid particles prepared in above-described <Preparation of EPO mRNA-encapsulating lipid particles> was tail-vein intravenously administered to C57BL/6J mice at a mRNA dosage of 0.1 mg/kg. 20 to 24 hours after the administration, blood was collected from the caudal vena cava, thereby obtaining blood plasma. The human EPO enzyme activity was quantified by using the obtained blood plasma and ab119522 Erythropoietin (EPO) Human Elisa Kit (Abcam.plc). The quantitative value is described as a relative amount of EPO protein in a case where Comparative Example 1 is 1.

The mark [4] stands for this setting: aminolipid 50 / DSPC 10 / cholesterol 38.5 / DMG-PEG2000 1.5 mol %, lipid/nucleic acid 20 wt/wt.
Setting [5] is: aminolipid 50 / DOPE 10 / cholesterol 38.5 / DMG-PEG2000 1.5 mol %, lipid/nucleic acid 64 wt/wt.

Compound `CCCCC/C=C\C/C=C\CCCCCCCCC(CCCCCCCC/C=C\C/C=C\CCCCC)OC(=O)CCCN(C)C` [Comparative Example 1, reference compound] showed a Particle size in data set [1] (setting [4]) of 89.0 nm. The “Nucleic acid encapsulation rate” value in data set [2] (setting [4]) was 93.4%. Moreover, in data set [3] (setting [4]), the “Relative amount of EPO protein (with respect to Comparative Example 1)” value (from here on “Relative amount of EPO protein”) worked out at 1.

For `CCCCCCCC/C=C\CCCCCCCC(=O)OCCN(CCOC(=O)OC(CCCCCC)CCCCCCCCC(=O)OCC(CCCCCC)CCCCCCCC)CCN(CC)CC` (stereo not drawn) [Comparative Example 2, reference compound], in data set [1] (setting [5]), the Particle size was 88.8 nm. Besides, the “Nucleic acid encapsulation rate” value in data set [2] (setting [5]) is listed as 100%. Also, the “Relative amount of EPO protein” value in data set [3] (setting [5]) was determined as 0.74.

For the compound `CCCCCCC(CCCC)COC(=O)CCCCCCCCC(CCCCCC)OC(=O)OCCN(CCCN(CC)CC)CCOC(=O)OC(CCCCCC)CCCCCCCCC(=O)OCC(CCCC)CCCCCC` (stereo not drawn) [Example 3, Bis(2-butyloctyl) 16-(3-(diethylamino)propyl)-10,22-dihexyl-12,20-dioxo-11,13,19,21-tetraoxa-16-azahentriaco ntanedioate], the Particle size in data set [1] (setting [5]) worked out at 81.2 nm. Moreover, in data set [2] (setting [5]), the “Nucleic acid encapsulation rate” value worked out at 97.8%. The “Relative amount of EPO protein” value in data set [3] (setting [5]) came out at 1.92.

Regarding `CCCCCCC(CCCC(=O)OCC(CCCCC)CCCCC)OC(=O)OCCN(CCOC(=O)OC(CCCCCC)CCCC(=O)OCC(CCCCC)CCCCC)CCN(CC)CC` (stereo not drawn) [Example 10, bis(2-pentylheptyl) 11-(2-(diethylamino)ethyl)-5,17-dihexyl-7,15-dioxo-6,8,14,16-tetraoxa-11-azahenicosanedioate], in data set [1] (setting [5]), the Particle size came to 88.0 nm. In addition, the “Nucleic acid encapsulation rate” value in data set [2] (setting [5]) was 100.0%. Further, the “Relative amount of EPO protein” value in data set [3] (setting [5]) was 2.39.

The compound `CCCCCCC(CCCC(=O)OCC(CCCCC)CCCCC)OC(=O)OCCN(CCOC(=O)OC(CCCCCC)CCCC(=O)OCC(CCCCC)CCCCC)CCN(C)C` (stereo not drawn) [Example 11, Bis(2-pentylheptyl) 11-(2-(dimethylamino)ethyl)-5,17-dihexyl-7,15-dioxo-6,8,14,16-tetraoxa-11-azahenicosanedio ate] registered a Particle size in data set [1] (setting [5]) of 73.2 nm. Moreover, the “Nucleic acid encapsulation rate” value in data set [2] (setting [5]) came to 98.6%. The “Relative amount of EPO protein” value in data set [3] (setting [5]) came to 2.70.

Compound `CCCCCCC(CCCC(=O)OCC(CCCCC)CCCCC)OC(=O)OCCN(CCCCN(CC)CC)CCOC(=O)OC(CCCCCC)CCCC(=O)OCC(CCCCC)CCCCC` (stereo not drawn) [Example 14, Bis(2-pentylheptyl) 11-(4-(diethylamino)butyl)-5,17-dihexyl-7,15-dioxo-6,8,14,16-tetraoxa-11-azahenicosanedioate] showed a Particle size in data set [1] (setting [5]) of 75.9 nm. Besides, in data set [2] (setting [5]), the “Nucleic acid encapsulation rate” value is 98.8%. The “Relative amount of EPO protein” value in data set [3] (setting [5]) was 3.85.

In the case of `CCCCCCC(CCCC(=O)OCC(CCCCC)CCCCC)OC(=O)OCCCN(CCCOC(=O)OC(CCCCCC)CCCC(=O)OCC(CCCCC)CCCCC)CCN(CC)CC` (stereo not drawn) [Example 15, Bis(2-pentylheptyl) 12-(2-(diethylamino)ethyl)-5,19-dihexyl-7,17-dioxo-6,8,16,18-tetraoxa-12-azatricosanedioate], in data set [1] (setting [5]), the Particle size was determined as 76.8 nm. The “Nucleic acid encapsulation rate” value in data set [2] (setting [5]) is recorded as 97.5%. Moreover, the “Relative amount of EPO protein” value in data set [3] (setting [5]) is 1.92.

With `CCCCCCC(CCCC(=O)OCC(CCCCC)CCCCC)OC(=O)OCCCCN(CCCCOC(=O)OC(CCCCCC)CCCC(=O)OCC(CCCCC)CCCCC)CCN(CC)CC` (stereo not drawn) [Example 16, Bis(2-pentylheptyl) 13-(2-(diethylamino)ethyl)-5,21-dihexyl-7,19-dioxo-6,8,18,20-tetraoxa-13-azapentacosanedio ate], the Particle size in data set [1] (setting [5]) is 69.4 nm. Also, the “Nucleic acid encapsulation rate” value in data set [2] (setting [5]) was 97.3%. Also, the “Relative amount of EPO protein” value in data set [3] (setting [5]) stood at 2.53.

For the compound `CCCCCCC(CCC(=O)OCC(CCCCC)CCCCC)OC(=O)OCCN(CCOC(=O)OC(CCCCCC)CCC(=O)OCC(CCCCC)CCCCC)CCN(CC)CC` (stereo not drawn) [Example 17, Bis(2-pentylheptyl) 10-(2-(diethylamino)ethyl)-4,16-dihexyl-6,14-dioxo-5,7,13,15-tetraoxa-10-azanonadecanedioate], the Particle size in data set [1] (setting [5]) was 81.7 nm. The “Nucleic acid encapsulation rate” value in data set [2] (setting [5]) stood at 96.9%. Besides, the “Relative amount of EPO protein” value in data set [3] (setting [5]) is on record as 2.93.

In data set [1] (setting [5]), `CCCCCC(CCCCC)COC(=O)CCCC(C)OC(=O)OCCN(CCOC(=O)OC(C)CCCC(=O)OCC(CCCCC)CCCCC)CCN(CC)CC` (stereo not drawn) [Example 19, Bis(2-pentylheptyl) 11-(2-(diethylamino)ethyl)-5,17-dimethyl-7,15-dioxo-6,8,14,16-tetraoxa-11-azahenicosanedio ate] registered a Particle size of 147.0 nm. Besides, the “Nucleic acid encapsulation rate” value in data set [2] (setting [5]) is reported as 100.0%. In addition, in data set [3] (setting [5]), the “Relative amount of EPO protein” value turned out to be 1.26.

With `CCCCCC(CCCCC)COC(=O)CCCC(CC)OC(=O)OCCN(CCOC(=O)OC(CC)CCCC(=O)OCC(CCCCC)CCCCC)CCN(CC)CC` (stereo not drawn) [Example 20, Bis(2-pentylheptyl) 11-(2-(diethylamino)ethyl)-5,17-dietyl-7,15-dioxo-6,8,14,16-tetraoxa-11-azahenicosanedioate], the Particle size in data set [1] (setting [5]) was found to be 133.4 nm. The “Nucleic acid encapsulation rate” value in data set [2] (setting [5]) was 100.0%. The “Relative amount of EPO protein” value in data set [3] (setting [5]) was determined as 3.22.

Regarding `CCCCCC(CCCCC)COC(=O)CCCC(CCCCC)OC(=O)OCCN(CCOC(=O)OC(CCCCC)CCCC(=O)OCC(CCCCC)CCCCC)CCN(CC)CC` (stereo not drawn) [Example 23, Bis(2-pentylheptyl) 11-(2-(diethylamino)ethyl)-7,15-dioxo-5,17-dipentyl-6,8,14,16-tetraoxa-11-azahenicosanedioate], in data set [1] (setting [5]), the Particle size turned out to be 76.8 nm. For the same compound, in data set [2] (setting [5]), the “Nucleic acid encapsulation rate” value amounted to 97.5%. For the same compound, the “Relative amount of EPO protein” value in data set [3] (setting [5]) was determined as 3.60.

Compound `CCCCCCCC(CCCC(=O)OCC(CCCCC)CCCCC)OC(=O)OCCN(CCOC(=O)OC(CCCCCCC)CCCC(=O)OCC(CCCCC)CCCCC)CCN(CC)CC` (stereo not drawn) [Example 24, Bis(2-pentylheptyl) 11-(2-(diethylamino)ethyl)-5,17-diheptyl-7,15-dioxo-6,8,14,16-tetraoxa-11-azahenicosanedioate] gave a Particle size in data set [1] (setting [5]) of 80.6 nm. Further, the “Nucleic acid encapsulation rate” value in data set [2] (setting [5]) amounted to 97.9%. In data set [3] (setting [5]), the “Relative amount of EPO protein” value is given as 1.46.

With `CCCCCCC(CCCC(=O)OCCC12CC3CC(CC(C3)C1)C2)OC(=O)OCCN(CCOC(=O)OC(CCCCCC)CCCC(=O)OCCC12CC3CC(CC(C3)C1)C2)CCN(CC)CC` (stereo not drawn) [Example 27, Bis (2-(((3r,5r,7r)-adamantan-1-yl)ethyl)11-(2-(diethylamino)ethyl)-5,17-dihexyl-7,15-dioxo-6,8,1 4,16-tetraoxa-11-azahenicosanedioate], in data set [1] (setting [5]), the Particle size came to 101.5 nm. In addition, in data set [2] (setting [5]), the “Nucleic acid encapsulation rate” value worked out at 99.8%. In data set [3] (setting [5]), the “Relative amount of EPO protein” value is 3.60.
